Results as given in EP1268487B1, “TRICYCLIC PROTEIN KINASE INHIBITORS” (Wyeth, priority 2000, dated 2001).
In brackets after ≈: the same amount, converted by molar mass.

Experiments:
MDA435 = assay: Inhibition of cancer cell growth as measured by cell number (Sulforhodamine B); format: cell-based; settings: Homo sapiens, 48 hours exposure
Method: (§1) Human tumor cell lines were plated in 96-well plates (250 µl/well, 1-6 x 10^4 cells/ml) in RPMI 1640 medium, containing 5% FBS (Fetal Bovine Serum). […] After 48 hours exposure to test compounds, cells were fixed with trichloroacetic acid, and stained with Sulforhodamine B. After washing with trichloroacetic acid, bound dye was solubilized in 10 mM Tris base and optical density was determined using a plate reader. Under conditions of the assay the optical density is proportional to the number of cells in the well. IC50s (concentrations causing 50% inhibition of cell growth) were determined from the growth inhibition plots. The test procedure is described in details by Philip Skehan et. al, J.Natl. Canc. Inst., 82, 1107-1112 (1990). […] Information about some of the cell lines used in these test procedures is available from the American Type Tissue Collection: Cell Lines and Hybridomas, 1994 Reference Guide, 8th Edition. The Her2Neu cell line is a 3T3 line that has been transfected with Her2 receptor kinase.

A431 = assay: as above; format: cell-based; settings: Homo sapiens, A-431; 48 hours exposure
Method: as §1

3T3 = assay: as above; format: cell-based; settings: Mus musculus, NIH3T3; 48 hours exposure
Method: as §1

SKBR3 = assay: as above; format: cell-based; settings: Homo sapiens, SK-BR-3; 48 hours exposure
Method: as §1

Her2Neu = assay: as above; format: cell-based; settings: 48 hours exposure; 3T3 line transfected with Her2 receptor kinase
Method: as §1

SW620 = assay: as above; format: cell-based; settings: Homo sapiens, SW-620; 48 hours exposure
Method: as §1

c-Met = target: T1, c-Met (Homo sapiens, UniProt P08581); assay: DELFIA assay for c-Met receptor kinase inhibitors; format: biochemical
T1 construct: The cytoplasmic domain of c-Met was generated by reverse transcriptase-polymerase chain reaction; His tag (from pFastBac-HTc vector; purified on Ni-NTA/Talon); made in house; host or cells: Sf9 insect cells (baculovirus)
Method: The c-Met kinase assay was performed as a DELFIA (dissociation enchanced lanthanide fluorometric immunoassay), an ELISA-like protocol based upon time-resolved fluorometry as described previously [Braunwalder, A. F., Yarwood, D.R., Sills, M.A., and Lipson, K.E., Anal. Biochem. 238, 159-164 (1996)]. The protocol was adopted for the screening of inhibitors of the kinase activity of recombinant c-Met. [Loganzo, F., and. Hardy, C., American Biotechnology Laboratory 16(13), 26-28 (1998)]. The cytoplasmic domain of c-Met was generated by reverse transcriptase-polymerase chain reaction using RNA isolated from human mammary epithelial cells as template, cloned into the pFastBac-HTc vector (Life Technologies) and protein expressed in Sf9 insect cells by baculovirus infection. Protein was purified by imidazole elution from Ni-NTA resin (Invitrogen, Carlsbad, CA) or Talon resin (Clontech, Palo Alto, CA). Various conditions were evaluated for the kinase screening protocol and screening was accomplished with the following method. Polystyrene Maxisorp plates (Nunc) were pre-coated for 1 hour to overnight at room temperature with 5 µg/ml poly(Glu4-Tyr) diluted in Tris-buffered saline (TBS). Plates were washed 3X with TBS. c-Met protein preparation was diluted 1:80 into 0.1% BSA/ 4 mM HEPES. A master mix was prepared consisting of: 1 volume of diluted c-Met, 1 volume of 5X buffer (20 mM HEPES, pH 7.4; 2 mM MnCl2; 100 µM Na3VO4; 1 mM DTT), 0.9 volume of water. Master mix (29 µl) was added to the wells of peptide-coated microtiter plates. For assays where c-Met autophosphorylation was evaluated, plates were uncoated and c-Met was diluted into 4 mM HEPES at 1:40 without BSA. Compounds (1 µl) at various dilutions (1 mM to 0.1 µM) prepared in DMSO were added and mixed well with an automatic piptettor. After incubation 20 minutes at room temperature, the reaction was initiated with 20 µl of 62.5 µM ATP/ 50 mM MgCl2 (final 25 µM ATP/ 20 mM MgCl2 in assay). Reactions were incubated 45 minutes at room temperature. Plates were then washed 3X with 100 µl each of DELFIA wash buffer (Wallac). Antibody binding was performed by adding 75 µl of Europium-conjugated anti-phosphotyrosine diluted 1:2000 in Assay Buffer (Wallac) for 1 hour at room temperature. Plates were washed 3X with DELFIA wash buffer. Detection was done by addition of 100 µl of Enhancement Solution (Wallac). After 30 minutes, plates were read in a Wallac VICTOR-2 time-resolved fluorometer. Inhibition data was reported as europium counts for compound treated wells normalized to control counts. IC50 values were obtained by using log doses of compound and calculated using Data Analysis Toolbox software, version 1.0.2 (MDL Information Systems, Inc.).

T1 sequence (P08581 956-1390 limits assumed): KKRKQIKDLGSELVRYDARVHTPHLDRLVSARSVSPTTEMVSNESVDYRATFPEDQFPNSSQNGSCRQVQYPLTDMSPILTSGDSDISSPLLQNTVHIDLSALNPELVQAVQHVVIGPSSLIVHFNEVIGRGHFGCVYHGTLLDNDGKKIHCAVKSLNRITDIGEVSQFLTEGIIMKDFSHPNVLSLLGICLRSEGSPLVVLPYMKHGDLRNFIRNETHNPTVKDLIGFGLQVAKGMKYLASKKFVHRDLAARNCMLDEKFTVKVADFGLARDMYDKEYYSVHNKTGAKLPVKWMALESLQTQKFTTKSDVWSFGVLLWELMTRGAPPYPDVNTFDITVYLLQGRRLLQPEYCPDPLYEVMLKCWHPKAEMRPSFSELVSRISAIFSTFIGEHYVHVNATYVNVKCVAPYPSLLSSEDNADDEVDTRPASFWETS

SMILES: N#Cc1cnc2cc3c(cc2c1Nc1ccc(F)c(Cl)c1)NCCO3 [Example 7, 9-(3-Chloro-4-fluoroanilino)-2,3-dihydro-1H-[1,4]oxazino[3,2-g]quinoline-8-carbonitrile]
- IC50 (MDA435): 1.43 µg/mL (≈ 4.03 µM)
- IC50 (A431): 0.527 µg/mL (≈ 1.49 µM)
- IC50 (3T3): 3.02 µg/mL (≈ 8.51 µM)
- IC50 (SKBR3): 0.968 µg/mL (≈ 2.73 µM)
- IC50 (Her2Neu): 3.9 µg/mL (≈ 11 µM)
- IC50 (SW620): 2.9 µg/mL (≈ 8.17 µM)
- inhibition at 10 µg/mL (c-Met): 80%
